Data as given in patent US12344587B2, “Synthetic retinoids for use in RAR activation” (UNIVERSITY OF DURHAM, priority 2019, dated 2025).

Assays:
ERK1/2 = ERK1/2 phosphorylation assay, AlphaLISA SureFire Ultra (non-genomic activity); type: cell-based; design: Non-genomic activity (ERK½ Phosphorylation Assay) Efficacy (Emax): unit not given here; settings: SH-SY5Y cells; for EC50: Homo sapiens, 0.5 h, read-out: Non-genomic activity (ERK½ Phosphorylation Assay) Potency (EC50); for EC50 / Non-genomic activity (ERK½ Phosphorylation Assay) Efficacy (Emax): serum-free, 30 minutes stimulation; for Erk 1/2 phosphorylation potency/efficacy compared to retinoic acid: versus retinoic acid
Description: The non-genomic activity of synthetic retinoids was evaluated by measuring their ability to induce phosphorylation of ERK1/2 using the AlphaLISA® SureFire® Ultra ERK1/2 kit.
In this assay, SH-SY5Y cells (100,000 cells/well) were plated in 96-well plates and serum-starved in DMEM for 24 hours. Retinoids were tested at concentrations from 10−5 M to 10−11 M and at a final concentration of 0.1% DMSO in the medium. The assay was carried out on the SH-SY5Y cells in serum-free DMEM, cells were stimulated by retinoid for 30 minutes at 37° C.
At the end of the assay, the medium was removed, and cells were lysed in 50 μl of freshly prepared 1× lysis buffer (supplied in the kit). The 96-well plate was agitated on an orbital shaker (SO1, Stuart Scientific) at approximately 350 rpm for 10 minutes at room temperature.
In the meantime, the activation buffer was diluted 25-fold in the reaction buffers. Under green light in a dark room, the acceptor beads were diluted 50-fold in the freshly prepared reaction mix while the donor beads were diluted 50-fold in dilution buffer to obtain two final reaction mixtures.
10 μl of cell lysate was then transferred per well into 384-well white Proxiplates plates (PerkinElmer) and 5 μl of each prepared acceptor and donor reaction mixture was added under green light in a dark room. Plates were wrapped with aluminium foil and incubated at room temperature for at least 3 hours. Readings were taken using an Envision system (PerkinElmer Life Sciences) using the AlphaScreen® settings.

[1] = system: rat mixed primary neuronal/glial cultures; experiment: Regulation of Alzheimer's disease related genes (qPCR); type: cell-based; settings: 10 nM retinoid 24 hours after 1 μg/ml lipopolysaccharide 6 hours
Description: To examine the influence retinoids may have on the expression of genes involved in Alzheimer's disease, the expression of a group of Alzheimer's-related genes in rat mixed primary neuronal/glial cultures was assessed following retinoid treatment.
Approximately 300,000 rat neuronal/glial cells were treated first with 1 μg/ml lipopolysaccharide (Sigma-Aldrich) for 6 hours to induce inflammation. Following the induction of inflammation, cells were treated with 10 nM retinoids for 24 hours. […] Following treatment, RNA was extracted from the treated cells for qPCR analysis.
Total RNA was extracted using a Qiagen RNeasy mini kit (CAT # 74104, Qiagen) according to the manufacturer's protocol. Briefly, cell and brain tissue samples were homogenized in 350 μl and 1200 μl of RLT buffer mixed with β-ME (1 ml buffer: 10 μl β-ME ratio) respectively. Then, samples were centrifuged for 3 min at 13,000 rpm. The supernatant was first mixed with 70% ethanol at a 1:1 volume ratio (CAT # E7023, Sigma-Aldrich) before transferring it to a spin column placed in a collection tube. The samples were centrifuged for 1 min at 10,000 rpm to bind RNA to the membrane of the spin column.
For the on-column DNase digestion, the samples in the columns were washed with 350 μl RW1 buffer and centrifuged at 10,000 rpm for 1 min. Then, 80 μl of the DNase mixture (10 μl DNase enzyme with 70 μl RDD buffer; CAT # 79254, Qiagen) was added above each sample. Samples were incubated at room temperature for 15 min before adding 350 μl RW1 buffer. Samples were centrifuged at 10,000 rpm for 1 min.
Afterwards, 500 μl of RPE buffer (mixed with 100% ethanol at 1:4 ratio) was added above the samples. Samples were centrifuged for 1 min at 10,000 rpm (the step was repeated 2 times). The spin columns were centrifuged again at 13,000 rpm for 1 min to dry the membranes. The spin columns were removed from the collection tubes and placed inside another 1.5 ml RNase free collection tubes. The RNA was eluted by adding 30 μl of RNase free water directly to the spin column membrane. The samples were incubated 5 min at room temperature before spinning them for 1 min at 10,000 rpm.
RNA concentration was measured using a NanoDrop™ 2000c spectrophotometer (Thermo Fisher Scientific). The instrument was calibrated using the RNase free water used to elute the RNA as a blank and 2 μl was used of each RNA sample. RNA samples were stored in a −70° C. freezer to minimize RNA degradation.
qPCR reactions were performed using PerfeCTa SYBR Green SuperMix (CAT # 733-1246, VWR). 10 μl of reaction mix was added to each well of a 384-well plate (CAT # 04729749001, Roche) in triplicate. Each reaction contained 2 μl of 4 times diluted cDNA template, 5 μl 2×SYBR green mix and 250 nM primers.
Primers were designed using Primer-BLAST with melting temperatures of about 60° C. Before using them in qPCR, the primers were checked for specificity by PCR and the PCR products were sent for sequencing.
Standard curves (made using 5-fold dilutions of the stock cDNA) and blank controls were run for all sets of primers tested in qPCR. The plates were then sealed and centrifuged briefly to ensure all the reagents were at the base of the wells. The plates were run on a Roche LightCycler 480 that was programmed to hold the plate at 95° C. for 5 min. The qPCR then ran for 45 cycles of 95° C. for 15 seconds (s), 60° C. for 15 s and 72° C. for 15 s. Afterwards, the melting curve was obtained by running the plate at 95° C. for 5 s followed by 58° C. for 1 min.
Results were analysed using the delta delta CT method within the LightCycler 480 1.5 software. The expression of genes of interest was normalized to the appropriate reference gene according to each experiment.

Row | Compound | EC50 (ERK1/2) [µM] | Non-genomic activity (ERK½ Phosphorylation Assay) Efficacy (Emax) (ERK1/2) | Erk 1/2 phosphorylation potency/efficacy compared to retinoic acid (ERK1/2) | Expression of inflammation genes (Ccl5, TNFα and Nos2) [1] | Expression of neuroprotection genes (Abca1, Abcg1, Igf1 and Igf2) [1] | Expression of non-amyloidogenic pathway genes (Nep, Ide and Adam10) [1]
1 | CC1(C)CCC(C)(C)c2cc(C#Cc3ccc(C(=O)O)nc3)ccc21 [DC528, 5-[2-(5,5,8,8-tetramethyl-5,6,7,8-tetrahydronaphthalen-2-yl)ethynyl]pyridine-2-carboxylic acid] | 0.0142 | 69.15 | higher potency and efficacy | downregulated | upregulated | upregulated
2 | CC1(C)CCC(C)(C)c2cc(C#Cc3ccc(C(=O)O)cc3F)ccc21 [DC526, 3-Fluoro-4-[2-(5,5,8,8-tetramethyl-5,6,7,8-tetrahydronaphthalen-2-yl)ethynyl]benzoic acid] | 0.0264 | 50.22 | higher potency and efficacy | downregulated | upregulated | upregulated
3 | CC1(C)CCC(C)(C)c2nc(C#Cc3ccc(C(=O)O)cc3)cnc21 [DC645, 4-[2-(5,5,8,8-Tetramethyl-5,6,7,8-tetrahydroquinoxalin-2-yl)ethynyl]benzoic acid] | 0.00854 | 91.57 | higher potency and efficacy | downregulated | upregulated | upregulated
